In US20230172897A1, “METHODS OF TREATING BREAST CANCERS WITH SELECTIVE ANDROGEN RECEPTOR MODULATORS AND ADDITIONAL THERAPEUTIC AGENTS” (VERU, INC., priority 2021, published 2023):
Where “and” joins values, the source holds several entries; their conditions need not be identical. Identical values can stand only once.

Legend:
[1] = tested on: metastatic or locally advanced ER+/AR+ breast cancer; test: Phase 2 clinical trial (G200802), 9 mg or 18 mg daily; assay type: in vivo, postmenopausal women; conditions: for Best overall objective tumor response: CR (number) / Best overall objective tumor response: PR (number): all evaluable patients; for Average rPFS / Clinical Benefit Response Rate / Clinical Benefit Responses (CR + PR + SD) / Median rPFS / Objective Response Rate / Objective Responses (CR + PR): measurable disease at baseline
Procedure: Each dose arm was treated independently, and each assessed for efficacy using Simon's two-stage (optimal) design (Simon R. Optimal two-stage designs for Phase 2 clinical trials. Controlled Clinical Trials 1989; 10: 1-10). Subjects were randomized in a 1:1 fashion to one of the two dose arms.
Randomization was stratified by subjects presenting with bone only metastases and all other subjects, and further by setting of immediately preceding therapy (adjuvant setting or metastatic setting) in order to balance the proportion of subjects with these presenting features in each dose arm.
Thirty-six to eighty-eight (36-88) subjects with centrally confirmed AR+ who received at least one dose of study drug (evaluable subjects) were needed for primary efficacy analysis purposes and were a subset of the full analysis set (FAS). Fifty patients in the 9 mg cohort and 52 patients in the 18 mg cohort met these criteria. […] Other statistical parameters that were part of the sample size calculation are α=0.025 (one-sided) and power=90%. The first stage in each study arm was assessed among the first 18 evaluable subjects. Greater than 3/18 subjects achieved CB (defined as CR, PR, or SD) at week 24, and both arms proceeded to the second stage of recruitment up to a total of 44 evaluable subjects per arm. Otherwise, the arm would have been discontinued for lack of efficacy. Statistical significance, i.e., rejection of the null hypothesis of an unacceptably low CBR of ≤10% in favor of the alternative hypothesis that indicated the higher rate, ≥30%, was more likely, would be declared if at least 9/44 subjects achieved CB at week 24 in that arm.
These patients on the study had measurable disease at baseline and an AR staining prior to entry into the study. The radiographic imaging in this patient population was done every 12 weeks (2.7 months). Therefore, the minimum radiographic progression free survival (rPFS) that could be determined is approximately 2.7 months. 90% of the patients in the study had previously received non-endocrine based chemotherapy. The patients in this study had failed an average of 2 prior treatment lines for metastatic disease (range=0-5). FIG. 43 provides a scatterplot for the patients in this study with regard to the correlation between % AR-positive staining at baseline (% AR staining) and rPFS. […] However, in patients with greater than or equal to 40% AR-positive staining, the rPFS was delayed to variable extents (scatter plot pattern) in many to most cases. A positive correlation between rPFS and % AR staining was seen above the threshold of 40% AR staining. To explore this positive correlation further, several subgroups of AR % staining were defined and analyzed for metrics of efficacy, as shown in Table 14.

[2] = tested on: breast cancer specimens obtained from patients; test: Ex vivo sponge culture of breast cancer patient specimens, real time PCR; conditions: 3 days

C[C@](O)(COc1ccc(C#N)cc1)C(=O)Nc1ccc(C#N)c(C(F)(F)F)c1 [Formula IX, (S)—N-(4-Cyano-3-(trifluoromethyl)phenyl)-3-(4-cyanophenoxy)-2-hydroxy-2-methylpropanamide]
clinical benefit rate at 6 months ([1]; 9 mg): 32% | Quality of life assessments ([1]; 9 mg and 18 mg cohorts): significant improvement from baseline | tolerability ([1]; 9 mg and 18 mg doses): well tolerated | response rate in patients previously treated with palbociclib and failed ([1]; 9 mg arm, 3 patients): 33% | Median duration of clinical benefit ([1]; 9 mg group): not reached | Best overall objective tumor response: CR (number) ([1]; 9 mg, post-hoc): 3 | Best overall objective tumor response: PR (number) ([1]; 9 mg, post-hoc): 8 | Average rPFS ([1]; 9 mg, % AR staining 20-40): 2.51 months | Clinical Benefit Response Rate ([1]; 9 mg, % AR staining 20-40): 22% | Clinical Benefit Responses (CR + PR + SD) ([1]; 9 mg, % AR staining 20-40): 2 | Median rPFS ([1]; 9 mg, % AR staining 20-40): 2.77 months | Objective Response Rate ([1]; 9 mg, % AR staining 20-40): 0% | Objective Responses (CR + PR) ([1]; 9 mg, % AR staining 20-40): 0 | Average rPFS ([1]; 9 mg, % AR staining 40-60): 4.62 months | Clinical Benefit Response Rate ([1]; 9 mg, % AR staining 40-60): 86% | Clinical Benefit Responses (CR + PR + SD) ([1]; 9 mg, % AR staining 40-60): 6 | Median rPFS ([1]; 9 mg, % AR staining 40-60): 2.93 months | Objective Response Rate ([1]; 9 mg, % AR staining 40-60): 43% | Objective Responses (CR + PR) ([1]; 9 mg, % AR staining 40-60): 3 | Average rPFS ([1]; 9 mg, % AR staining 60-80): 8.10 months | Clinical Benefit Response Rate ([1]; 9 mg, % AR staining 60-80): 80% | Clinical Benefit Responses (CR + PR + SD) ([1]; 9 mg, % AR staining 60-80): 8 | Median rPFS ([1]; 9 mg, % AR staining 60-80): 5.60 months | Objective Response Rate ([1]; 9 mg, % AR staining 60-80): 60% | Objective Responses (CR + PR) ([1]; 9 mg, % AR staining 60-80): 6 | Average rPFS ([1]; 9 mg, % AR staining <20): 2.83 months | Clinical Benefit Response Rate ([1]; 9 mg, % AR staining <20): 15% | Clinical Benefit Responses (CR + PR + SD) ([1]; 9 mg, % AR staining <20): 2 | Median rPFS ([1]; 9 mg, % AR staining <20): 2.70 months | Objective Response Rate ([1]; 9 mg, % AR staining <20): 0% | Objective Responses (CR + PR) ([1]; 9 mg, % AR staining <20): 0 | Average rPFS ([1]; 9 mg, % AR staining <40): 2.7 months and 2.70 months | Clinical Benefit Response Rate ([1]; 9 mg, % AR staining <40): 18% | Clinical Benefit Responses (CR + PR + SD) ([1]; 9 mg, % AR staining <40): 4 | Median rPFS ([1]; 9 mg, % AR staining <40): 2.72 months | Objective Responses (CR + PR) ([1]; 9 mg, % AR staining <40): 0 | Average rPFS ([1]; 9 mg, % AR staining <60): 3.17 months | Clinical Benefit Response Rate ([1]; 9 mg, % AR staining <60): 34% | Clinical Benefit Responses (CR + PR + SD) ([1]; 9 mg, % AR staining <60): 10 | Median rPFS ([1]; 9 mg, % AR staining <60): 2.77 months | Objective Response Rate ([1]; 9 mg, % AR staining <60): 10% | Objective Responses (CR + PR) ([1]; 9 mg, % AR staining <60): 3 | Average rPFS ([1]; 9 mg, % AR staining >40): 7.15 months | Clinical Benefit Response Rate ([1]; 9 mg, % AR staining >40): 80% | Clinical Benefit Responses (CR + PR + SD) ([1]; 9 mg, % AR staining >40): 20 | Median rPFS ([1]; 9 mg, % AR staining >40): 5.47 months | Objective Responses (CR + PR) ([1]; 9 mg, % AR staining >40): 12 | Average rPFS ([1]; 9 mg, % AR staining >60): 8.14 months | Clinical Benefit Response Rate ([1]; 9 mg, % AR staining >60): 78% | Clinical Benefit Responses (CR + PR + SD) ([1]; 9 mg, % AR staining >60): 14 | Median rPFS ([1]; 9 mg, % AR staining >60): 5.60 months | Objective Response Rate ([1]; 9 mg, % AR staining >60): 50% | Objective Responses (CR + PR) ([1]; 9 mg, % AR staining >60): 9 | Average rPFS ([1]; 9 mg, % AR staining >80): 8.18 months | Clinical Benefit Response Rate ([1]; 9 mg, % AR staining >80): 75% | Clinical Benefit Responses (CR + PR + SD) ([1]; 9 mg, % AR staining >80): 6 | Median rPFS ([1]; 9 mg, % AR staining >80): 6.23 months | Objective Response Rate ([1]; 9 mg, % AR staining >80): 38% | Objective Responses (CR + PR) ([1]; 9 mg, % AR staining >80): 3 | median duration of response in patients with an objective tumor response ([1]; 9 mg, post-hoc): 8.18 months | responders with duration of response >12 months ([1]; 9 mg, post-hoc): 25% | responders with duration of response ≥6 months ([1]; 9 mg, post-hoc): 67% | clinical benefit rate at 6 months ([1]; 18 mg): 29% | response rate in patients previously treated with palbociclib and failed ([1]; 18 mg arm, 6 patients): 33% | Median duration of clinical benefit ([1]; 18 mg group): 14.1 months | Best overall objective tumor response: CR (number) ([1]; 18 mg, post-hoc): 1 | Best overall objective tumor response: PR (number) ([1]; 18 mg, post-hoc): 5 | patients with an objective response after progression on estrogen blocking agents and CDK 4/6 inhibitor ([1]; AR nuclei staining ≥40% (7 patients), post-hoc): 3 patients | objective response rate after progression on estrogen blocking agents and CDK 4/6 inhibitor ([1]; AR nuclei staining ≥60% subgroup (4 patients)): 75% | first stage: subjects achieving CB at week 24 ([1]; both arms (9 mg, 18 mg), first 18 evaluable subjects): Greater than 3/18 | specimens in which ER function was inhibited ([2]; 1 μM Formula IX or 100 nM fulvestrant): 3 of 8 | specimens in which AR agonist activity was observed ([2]; 1 μM): 4 of 8 | ER function in specimen 1005 [2]: inhibited the ER function
